{"source": "patent US20220054494A1", "about": "“METHODS FOR TREATING BLADDER AND URETHRA DYSFUNCTION AND DISEASE” (University of Pittsburgh - Of the Commonwealth System of …, priority 2019, published 2022)", "key": {"[1]": {"tested_on": "CYP-treated rats", "test": "Abdominal mechanical pain threshold (Von Frey) in CYP cystitis model", "type": "in vivo, rat", "conditions": "CYP (75 mg/kg i.p.) female Sprague Dawley rats; oral 8-AG 5 mg/kg for 1 week prior to CYP", "description": "Animals: Female Sprague Dawley rats were employed in this example (Charles River; Wilmington, Mass.). Three groups of animals were included. Group 1 received an i.p. injection of saline and was used as a control; groups 2 and 3 received an i.p. injection of cyclophosphamide (CYP, SIGMA-ALDRICH®, St Louis, Mo., day 0, 3, 6, sacrifice day 8, 75 mg/kg, i.p.) with group 3 treated with oral 8-AG (5 mg/kg/day; starting one week prior to CYP). CYP induced bladder inflammation and is a well-established pre-clinical model for BPS/IC.\nDetermination of mechanical pain threshold: Lower abdominal pain was evaluated using a mechanical hyperalgesia and allodynia test (Larid et al., Pain, 92:335-342, 2001; Minnet et al., PLoS One, 9:e104458, 2014). Briefly, animals were placed in individual chambers with a wire mesh floor and allowed to acclimate. This Von Frey test was performed in the lower abdomen and consists of delivering a constant pre-determined force with one of a series of Von Frey monofilaments (from 0.08 to 19.6 mN; Stoelting Co., Wood Dale, Ill., USA). Filaments were applied perpendicularly with enough strength to cause the monofilament to slightly bend. Each monofilament was tested five times, 5 s interval between each application. […]"}, "[2]": {"tested_on": "bladder smooth muscle", "test": "Transmission electron microscopy of bladder smooth muscle", "type": "in vivo, rat", "description": "Transmission electron microscopy (TEM): The other half of each urinary bladder from each group (young, aged, and aged+treatment) were fixed in cold 2.5% glutaraldehyde in 0.01 M PBS. The specimens were rinsed in PBS, post-fixed in 1% osmium tetroxide with 1% potassium ferricyanide, rinsed in PBS, dehydrated through a graded series of ethanol and propylene oxide, and embedded in POLY/BED® 812 (Luft formulations). Semi-thin (300 nm) sections were cut on a LEICA® Reichart Ultracut, stained with 0.5% toluidine blue in 1% sodium borate and examined under the light microscope. Ultrathin sections (65 nm) were stained with uranyl acetate and Reynold's lead citrate and examined on JEOL 1400 transmission electron microscope with a side mount AMT 2k digital camera (Advanced Microscopy Techniques, Danvers, Mass.).\n(§1) Transmission electron microscopy (TEM): The other half of each urinary bladder, proximal urethra, or external urethral sphincter from each group (young, aged, aged+8-AG treatment) was fixed in cold 2.5% glutaraldehyde in 0.01 M PBS. The specimens were rinsed in PBS, post-fixed in 1% osmium tetroxide with 1% potassium ferricyanide, rinsed in PBS, dehydrated through a graded series of ethanol and propylene oxide solutions, and embedded in POLY/BED® 812 (Luft formulations). Semi-thin (300 nm) sections were cut on a LEICA® Reichart Ultracut, stained with 0.5% Toluidine Blue in 1% sodium borate and examined under the light microscope. Ultrathin sections (65 nm) were stained with uranyl acetate as well as Reynold's lead citrate and examined on a JEOL 1400 transmission electron microscope with a side mount AMT 2k digital camera (Advanced Microscopy Techniques, Danvers, Mass.).\nas §1, with “Half” for “The other half”, “bladder” for “bladder, proximal urethra, or external urethral sphincter”, “borate,” for “borate”, “and” for “as well as”"}, "[3]": {"conditions": "aged Fisher 344 rats, 8-AG 5 mg kg/day via drinking water, 1 month"}, "[4]": {"conditions": "aged rats, oral 8-AG 5 mg/kg/day, 6 weeks"}}, "note": "“Also recorded” adds a separate entry of the source.", "data": [{"compound": "Nc1nc2[nH]c(N)nc2c(=O)[nH]1", "note": "[8-AG, 8-Aminoguanine]", "values": [{"measurement": "abdominal mechanical pain threshold", "setting": "[1]", "value": "returned to near control levels"}, {"measurement": "detrusor smooth muscle morphology (separation and degeneration of cells)", "setting": "[2]; [3]", "value": "restored to a younger state; also recorded: restored to levels similar to the younger state"}, {"measurement": "swelling and disruption of smooth muscle mitochondria", "setting": "[2]; [3]", "value": "restored to a younger state; also recorded: restored to levels similar to the younger state"}, {"measurement": "bladder smooth muscle mitochondrial abnormalities", "setting": "[2]; aged rats, intravesical 100 μM 8-AG plus 10 μM DEA-NONOate, daily infusion 3-6 weeks", "value": "normalized; also recorded: restored"}, {"measurement": "detrusor smooth muscle morphology (structural anomalies)", "setting": "[2]; [4]", "value": "reversed; also recorded: restored to a younger state"}, {"measurement": "swelling and disruption of smooth muscle mitochondria", "setting": "[2]; [4]", "value": "reversed; also recorded: restored to a younger state"}]}]}
